Source: patent publication US20210179577A1, “AROMATIC SULFONAMIDE DERIVATIVES FOR THE TREATMENT OF ISCHEMIC STROKE” (Bayer Aktiengesellschaft, priority 2017, published 2021)
Several values for one entry are separate records, joined by “and”; a condition that tells them apart may be missing. Equal entries are not always repeated.

Legend:
Format in all cases: cell-based
[1] = target: T1, hP2X4 (Homo sapiens, UniProt Q99571); assay: Human P2X4 HEK Cell Electrophysiology Assay B (QPatch); conditions: ATP 5 microM, -90 mV; read-out: Human P2X4 HEK Cells (QPatch Electrophysiology) avg IC50
T1 construct: expressed in transfected cells; host or cells: HEK-293 mito-Photina, clone 2a/4
T1 sequence (Q99571 1-388): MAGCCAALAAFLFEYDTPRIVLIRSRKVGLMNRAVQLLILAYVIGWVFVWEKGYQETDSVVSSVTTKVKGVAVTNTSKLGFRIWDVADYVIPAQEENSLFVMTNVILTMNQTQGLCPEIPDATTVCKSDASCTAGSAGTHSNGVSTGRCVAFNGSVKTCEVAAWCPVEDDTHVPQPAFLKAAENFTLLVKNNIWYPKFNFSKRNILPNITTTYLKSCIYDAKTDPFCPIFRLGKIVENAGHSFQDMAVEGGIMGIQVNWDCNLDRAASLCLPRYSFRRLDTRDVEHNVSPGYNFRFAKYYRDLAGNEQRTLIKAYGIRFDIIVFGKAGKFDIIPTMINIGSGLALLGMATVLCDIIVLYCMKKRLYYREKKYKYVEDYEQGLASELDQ
Experimental: Cell culture conditions: HEK-293 mito-Photina pcDNA3(neo-)/pPURO N/pcDNA3_P2RX4, clone 2a/4 (HEK-293 mito-Photina/hP2RX4) cells were cultured in EMEM Minimum Essential Medium Eagle with Earl's salts Balanced Salt Solution (BioWhittaker cat. BE12-125F) supplemented with 5 mL of 200 mM Ultraglutaminel (BioWhittaker cat. BE17-605E/U1), 5 mL of 100× Penicillin/Streptomycin (BioWhittaker cat. DE17-602E; final concentration 1%), 4 mL of 50 mg/mL G418 (Sigma cat. G8168-100 mL; final concentration 400 μg/mL), 10 μL of 10 mg/mL Puromicin (InvivoGen cat. ant-pr-1; final concentration 0.2 μg/mL) and 50 mL of Fetal Bovine Serum (Sigma cat. F7524; final concentration 10%).
Experimentalprotocol: HEK-293 cell lines are seeded 72 or 96 hours before experiment, at a concentration of 5 or 2.5 million cells, respectively onto a T225 flask. Just before the experiments cells are washed twice with D-PBS w/o Ca2+/Mg2+(Euroclone cat. ECB4004L) and detached from the flask with trypsin-EDTA (Sigma, cat. T4174 diluted 1/10). Cells are then re-suspended in the suspension solution: 25 mL EX-CELL ACF CHO medium (Sigma, cat. C5467); 0.625 mL HEPES (BioWhittaker, cat. BE17-737E); 0.25 mL of 100× Penicillin/Streptomycin (BioWhittaker, cat. DE17-602E), 0.1 mL of Soybean Trypsin Inhibitor 10 mg/mL (Sigma, cat. T6522) and placed on the QPatch 16X.
Compound preparation and storage: Compound stock solutions (10 mM; 100% DMSO; stored at −20° C.) were used. Fresh solutions from stock (1 or 3 mM, 100% DMSO) were prepared just before the experiments (0.1% final DMSO concentration).
Patch clamp analysis with QPatch16X (FIG. 1): Standard whole-cell voltage clamp experiments are performed at room temperature using the multihole technology.
For the voltage clamp experiments on hP2X4, data are sampled at 2 KHz. After establishment of the seal and the passage in the whole cell configuration, the cells are held at −90 mV and the hP2X4 current is evoked by the agonist in the absence (vehicle period, i.e. 0.1% DMSO) or in the presence of the compound under investigation at increasing concentrations; see the application protocol in FIG. 1.
Output: the maximum inward current induced by the agonist (ATP 5 microM).
The intracellular solution contained (mM) 135 CsF, 10 NaCl, 1 EGTA, 10 HEPES (pH 7.2 with CsOH) whereas the extracellular solution (mM) 145 NaCl, 4 KCl, 0.5 MgCl2, 1 CaCl2, […], 10 Glucose (pH 7.4 with NaOH).
For data collection, the Sophion software was used and the analysis was performed off-line using Excel and GraphPad Prism.
When possible, i.e. when the % of inhibition with the highest concentration tested was more than 50%, the dose-response curves data were fitted with the following equation:
[X is log of concentration; Y is normalized response (100% down to 0%, decreasing as X increases); Log IC50 same log units as X; HillSlope is unitless slope factor or hill slope]

[2] = target: T2, human P2X4 (Homo sapiens, UniProt Q99571); assay: Human P2X4 HEK Cell FLIPR Assay; set-up: expressed in transfected cells; host or cells: HEK293; conditions: HEK293 cells, agonist Bz-ATP at EC80; for Emax: percentage of maximal inhibition, read-out: Human P2X4 HEK Cells (FLIPR Assay) avg Efficacy
T2 sequence (Q99571 1-388): T1 sequence (Q99571 1-388)
Experimental: HEK293 cells stably expressing human P2X4 were plated in poly-D-lysine-coated 384-well plates at a seeding density of 30000 cells/well and incubated overnight. P2X4 function was assessed by measuring intracellular calcium changes using the calcium-chelating dye Fluo8-AM (Molecular Devices) on a fluorescent imaging plate reader (FLEX/FLIPR station; Molecular Devices). On the day of the assay, the medium was removed and the cells were incubated for 30 min at 37° C. and 5% CO2 in 30 μL of dye buffer (Hank's balanced salt solution, 10 mM HEPES, 1.8 mM CaCl2, 1 mM MgCl2, 2 mM probenecid, 5 mM D-glucose monohydrate, 5 μM Fluo8-AM, pH=7.4). Compounds diluted in probenecid buffer (Hank's balanced salt solution, 10 mM HEPES, 1.8 mM CaCl2, 1 mM MgCl2, 2 mM probenecid, 5 mM D-glucose monohydrate, pH=7.4) were added in a volume of 10 μL and allowed to incubate for 30 min at room temperature. The final assay DMSO concentration was 0.5%. The agonist, Bz-ATP (Tocris), was added in a volume of 10 μL at a concentration representing the EC80 value. The EC80 value of Bz-ATP was determined each assay day prior to compound profiling. The fluorescence was measured for an interval of 120 sec at 2 sec intervals. The excitation and emission wavelengths used to monitor fluorescence were 470-495 nm and 515-575 nm, respectively. The data was analyzed based on the increase in peak relative fluorescence units (RFU) compared to the basal fluorescence and the data was normalized to the agonist control. The compounds were tested in triplicates per plate and mean values were plotted in Excel XL-Fit to determine IC50 values, percentage of maximal inhibition and the Hill coefficients.

[3] = target: T3, endogenous P2X4 channels (Homo sapiens, UniProt Q99571); assay: Human Monocyte P2X4 Assay (FLIPR); conditions: primary human monocytes, 3 μM BzATP, one value per donor; for Emax: read-out: Human P2X4 Monocytes (FLIPR Assay) Efficacy for different donors; for IC50: read-out: Human P2X4 Monocytes (FLIPR Assay) IC50 for different donors
T3 construct: measure calcium influx through endogenous P2X4 channels into primary human monocytes; endogenous in cells; host or cells: primary human monocytes isolated from donor PBMCs
T3 sequence (Q99571 1-388): T1 sequence (Q99571 1-388)
Experimental: The principle of the assay is to measure calcium influx through endogenous P2X4 channels into primary human monocytes, following activation by 2′,3′-O-(4-benzoyl-benzoyl)-ATP (Bz-ATP). Intracellular calcium concentration changes were measured with a Flipr™ (Molecular Devices) device using a calcium sensitive dye (Fluo-8). In primary monocytes P2X4 is located at the lysosome membrane, therefore exocytosis has to be triggered to expose P2X4 at the cellular membrane.
Human peripheral blood mononuclear cells (PBMCs) from anticoagulated blood (blood cells, BC) were isolated via density gradient centrifugation. Whole blood was diluted 1:3 with PBS. Samples of 30 mL were layered carefully on top of 15 mL Biocoll (BIOCHROM) in 50 mL centrifuge tubes (Falcon). Tubes were centrifuged at 914×g for 25 min at RT without brake. The PBMC layer was removed with a 10 mL pipette and transferred into tubes with ice-cold PBS in a total volume of 50 mL. Cells were washed twice by pelleting at 300×g at 4° C., for 10 min and for 5 min respectively. PBMCs were re-suspended in 10 mL medium (X-vivo, Biozym Scientific) and counted in a Neubauer chamber.
Monocytes were isolated by negative selection using the Monocyte isolation kit II from Miltenyi (#130-091-153) according to the instructions. Isolation should be done fast and cells and solutions should be kept on ice at any time. PBMCs in batches of 10exp8 cells were pelleted (300×g, 10 min) and re-suspended with 300 μL MACS buffer in a 50 mL Falcon tube. FcR Blocking reagent (100 μl) and Biotin-Ab (100 μl) were added, mixed and incubated on ice for 10 min. MACS buffer (300 μL) and anti-Biotin Micro-beads (100 μL) were added, mixed and incubated on ice for 15 min. Cells were washed by pelleting (300×g for 10 min) and re-suspended in 500 μL MACS buffer. For each batch one separation column was placed in the MACS separator and rinsed with 3 mL MACS buffer. The cell suspension was added to the column, followed by 3×3 mL MACS buffer for washing, and the eluent containing the monocytes was collected. Cells were pelleted (300×g for 10 min), re-suspended in X-vivo medium and counted. Monocytes were seeded into fibronectin-coated micro-plates (384-well, black, flat transparent bottom; Corning #3848) at a density of 30,000 cells/well in 50 μL, and cultivated over night (37° C., 5% CO2).
Test substances were dissolved in 100% DMSO at a stock concentration of 10 mM and stored at −20° C. in aliquots. Serial dilutions (2×) were prepared in DMSO and diluted 500× with assay buffer to generate the antagonist plate. In the Flipr measurement, 10 μL per well were transferred (4× dilution) and a final top concentrations of 5 μM and 0.05% DMSO were obtained in the assay. Agonist BzATP was stored at 10 mM in aliquots and diluted to an intermediate concentration of 15 μM to generate the agonist plate. In the Flipr measurement, 10 μL per well were transferred (5× dilution) so that a final assay concentration of 3 μM was obtained.
For the experiment, the medium of the cell plate was discarded manually and 70 μL/well loading buffer was added and incubated for 1 h (37° C., 5% CO2). Loading buffer contained HBSS (w/o calcium/magnesium), 10 mM Hepes pH 7.4, 5 μM Fluo-8 (AM) (Tebu-bio) and 50 mM methylamine (Sigma) to trigger exocytosis. Loading buffer was discarded manually and 30 μL/well low-calcium assay buffer (5 mM KCl, 145 mM NaCl, 0.5 mM CaCl2), 13 mM glucose, 10 mM Hepes pH 7.4) was added. The antagonist plate was transferred (10 μL/well) and after 15 min at RT the agonist plate (10 μL/well) was transferred.
Agonist addition was recorded for 240 seconds after a 10 second baseline. For analysis, a baseline correction was applied, and the maximum of the curve was extracted. Data were normalized towards 0% inhibition (signal at 3 μM BzATP) and 100% inhibition (absence of BzATP stimulation) and fitted with a four-parameter sigmoidal inhibition curve using Prism Graph Pad to obtain IC50 values.

SMILES | IC50 [1] | IC50 [2] | Emax [3] | IC50 [3] | Emax [2]
NS(=O)(=O)c1cc(NC(=O)Cc2ccccc2F)ccc1-n1cc(C(F)(F)F)cn1 [Example 20, 2-(2-Fluorophenyl)-N-{3-sulfamoyl-4-[4-(trifluoromethyl)-1H-pyrazol-1-yl]phenyl}-acetamide] | 0.195 µM | 0.14 µM |  |  | 
NS(=O)(=O)c1cc(NC(=O)Cc2ccccc2Cl)ccc1-n1cnc(Cl)n1 [Example 24, 2-(2-Chlorophenyl)-N-[4-(3-chloro-1H-1,2,4-triazol-1-yl)-3-sulfamoylphenyl]-acetamide] |  | 0.045 µM | 79% | 0.141 µM and 0.034 µM and 0.091 µM | 
NS(=O)(=O)c1cc(NC(=O)Cc2ccccc2Cl)ccc1-n1cc(Cl)cn1 [Example 25, 2-(2-Chlorophenyl)-N-[4-(4-chloro-1H-pyrazol-1-yl)-3-sulfamoylphenyl]acetamide] | 0.222 µM | 0.026 µM |  |  | 
NS(=O)(=O)c1cc(NC(=O)Cc2ccccc2F)cnc1-c1cnn(C(F)F)c1 [Example 321, N-{6-[1-(Difluoromethyl)-1H-pyrazol-4-yl]-5-sulfamoylpyridin-3-yl}-2-(2-fluorophenyl)acetamide] | 0.227 µM | 0.087 µM |  |  | 
NS(=O)(=O)c1cc(NC(=O)Cc2ccccc2Cl)ccc1-c1cnn(C2CC2)c1 [Example 349, 2-(2-Chlorophenyl)-N-[4-(1-cyclopropyl-1H-pyrazol-4-yl)-3-sulfamoylphenyl]acetamide] | 0.117 µM | 0.037 µM |  |  | 

Now from value to molecule:

IC50 [1] | IC50 [2] | Emax [3] | IC50 [3] | Emax [2] | SMILES
 | 0.031 µM |  | 0.078 µM and 0.164 µM | 90% | NS(=O)(=O)c1cc(NC(=O)Cc2ccccc2Cl)ccc1-n1cc(Br)cn1 [Example 28, N-[4-(4-Bromo-1H-pyrazol-1-yl)-3-sulfamoylphenyl]-2-(2-chlorophenyl)acetamide]
 | 0.126 µM | 60% | 0.303 µM and 0.183 µM and 0.11 µM | 70% | COc1ccc(CC(=O)Nc2ccc(-n3cc(Cl)cn3)c(S(N)(=O)=O)c2)cc1 [Example 170, N-[4-(4-Chloro-1H-pyrazol-1-yl)-3-sulfamoylphenyl]-2-(4-methoxyphenyl)acetamide]
0.155 µM | 0.025 µM |  |  |  | NS(=O)(=O)c1cc(NC(=O)Cc2ccccc2Cl)ccc1-c1cncc(C(F)(F)F)c1 [Example 331, 2-(2-Chlorophenyl)-N-{3-sulfamoyl-4-[5-(trifluoromethyl)pyridin-3-yl]phenyl}-acetamide]
 | 0.034 µM | 35% | 0.122 µM and 0.104 µM |  | NS(=O)(=O)c1cc(NC(=O)Cc2ccccc2Cl)cnc1-n1cc(Cl)cn1 [Example 387, 2-(2-Chlorophenyl)-N-[6-(4-chloro-1H-pyrazol-1-yl)-5-sulfamoylpyridin-3-yl]acetamide]
